Reference: patent US8278338B2 (priority 2004, dated 2012)
Where two headings read alike, the source gives them in different places.

Assays:
NA reuptake = molecular target: T1, NA reuptake (Rattus norvegicus, UniProt Q63380); assay: Inhibition of NA reuptake in rat brain synaptosomes (hypothalamus, P2 fraction); format: biochemical; details: for inhibition at 10 µM: 10 μmol./l
T1 construct: isolated from the hypothalamus of male rat brains; from tissue; host or cells: rat brain synaptosomes (P2 fraction), hypothalamus of male rats
Method: In order to be able to carry out these in vitro studies, synaptosomes were freshly isolated from areas of rat brain. A so-called “P2” fraction was used in each case, which was prepared exactly according to the procedure of Gray, E. G. and Whittaker, V. P. (1962, J. Anat. […], 79-88). For NA reuptake, these vesicular particles were isolated from the hypothalamus of male rat brains, and for 5HT reuptake, they were isolated from the medulla+pons region.
IC50 values were obtained thereby which can be converted into inhibitor constants (Ki) according to the “Cheng-Prusoff equation” (Cheng, Y. C. and Prusoff, W. H., 1973, Biochem. Pharmacol. 22, 3099-3108). The IC50 values were obtained with the aid of the “Figure P” computer program (Version 6.0, Biosoft, Cambridge, England). Km values were calculated according to Lineweaver, H. and Burk, D. (1934, J. Am. Chem. Soc. 56, 658-666). The “Ligand” computer program (Version 4, Biosoft, England) was used to show KD values.

5-HT reuptake = 5-HT reuptake (Rattus norvegicus, UniProt P31652); assay: biochemical; details: for inhibition at 10 µM: read-out: Inhibition of 5-HT reuptake (% inhibition at 10 μmol./l), 10 μmol./l
Text: In order to be able to carry out these in vitro studies, synaptosomes were freshly isolated from areas of rat brain. […] For NA reuptake, these vesicular particles were isolated from the hypothalamus of male rat brains, and for 5HT reuptake, they were isolated from the medulla+pons region.
The IC50 values were obtained with the aid of the “Figure P” computer program (Version 6.0, Biosoft, Cambridge, England). […] The “Ligand” computer program (Version 4, Biosoft, England) was used to show KD values.

human μ-opiate receptor = molecular target: T2, human μ-opiate receptor (Homo sapiens, UniProt P35372); assay: Affinity for the human μ-opiate receptor, [3H]-naloxone displacement (SPA) on CHO-K1 receptor membrane preparation; format: binding; details: for μ-Opioid receptor affinity (% inhibition at 1 μmol./l): 1 μmol./l test substance; for μ-Opioid receptor affinity (% inhibition at 1 μmol./l) / inhibition at 1 µM: inhibition of specific [3H]-naloxone binding; for inhibition at 1 µM: 1.5 h, read-out: μ-Opioid receptor affinity (% inhibition at 1 μmol./l), 1 μmol./l test substance
T2 construct: purchased Perkin Elmer, Zaventem, Belgium RB-HOM; host or cells: CHO-K1 cells
Method: The receptor affinity for the human μ-opiate receptor was determined in a homogeneous batch on microtitre plates. To that end, serial dilutions of the substances to be tested were incubated for 90 minutes at room temperature with a receptor membrane preparation (15-40 μg of protein/250 μl of incubation batch) of CHO-K1 cells, which express the human μ-opiate receptor (RB-HOM receptor membrane preparation from Perkin Elmer, Zaventem, Belgium), in the presence of 1 nmol./l of the radioactive ligand [^3H]-naloxone (NET719, Perkin Elmer, Zaventem, Belgium) and 1 mg of WGA-SPA beads (wheatgerm agglutinin SPA beads from Amersham/Pharmacia, Freiburg, Germany) in a total volume of 250 μl. The incubation buffer used was 50 mmol./l of Tris-HCl supplemented with 50 μM MgCl2 and 0.05% bovine serum albumin. In order to determine non-specific binding, 100 μmol./l of naloxone were additionally added. When the ninety-minute incubation time was complete, the microtitre plates were centrifuged off for 20 minutes at 1000 g and the radioactivity was measured in a β-counter (Microbeta-Trilux, PerkinElmer, Freiburg, Germany). The percentage displacement of the radioactive ligand from its binding to the human μ-opiate receptor at a concentration of the test substances of 1 μmol./l was determined and stated as the percentage inhibition of specific binding. […] Ki values for the test substances were obtained by conversion by means of the Cheng-Prusoff equation (Cheng and Prusoff 1973).

rat = assay: Formalin test in the rat (phase 2, chronic pain component); format: in vivo; details: for Inhibition of the nociceptive behaviour versus control (% inhibition): phase 2
Method: The formalin test (Dubuisson, D. and Dennis, S. G., 1977, Pain, 4, 161-174) represents a model for acute and chronic pain. By means of a single formalin injection into the dorsal side of a rear paw, a biphase nociceptive reaction was induced in freely mobile test animals; the reaction was assessed by observing three behaviour patterns which are clearly distinguishable from one another. The reaction is two-phase: phase 1=immediate reaction (duration up to 10 minutes; shaking of the paw, licking), phase 2=late reaction (after a rest phase; likewise shaking of the paw, licking; duration up to 60 minutes). The first phase reflects a direct stimulation of the peripheral nocisensors with a high spinal nociceptive input or glutamate release (acute pain phase); the second phase reflects a spinal and peripheral hypersensitisation (chronic pain phase). In the studies presented here, the chronic pain component (phase 2) was evaluated.
Formalin was administered subcutaneously in a volume of 50 μl and a concentration of 5% into the dorsal side of the right rear paw of each animal. The specific behavioural changes, such as lifting and shaking of the paw, weight shifting of the animal and biting and licking reactions, were observed and recorded over an observation period of from 21 to 27 minutes after the formalin injection. The various behaviours were combined to give the so-called pain rate (PR) which, based on 3-minute intervals, represents the calculation of a mean nociceptive reaction. The PR was calculated on the basis of a numerical weighting (=in each case factor 1, 2, 3) of the observed behaviours (corresponding to behaviour score 1, 2, 3) and was calculated using the following formula:
The size of the group was 10 animals (n=10).
On the basis of the PR calculations, the activity of the substance was determined in percent as the change relative to a control. The ED50 was determined by means of regression analysis.

[1] = rat synaptosomes, Cheng-Prusoff
[2] = Cheng-Prusoff from IC50, [3H]-naloxone 1 nmol./l, read-out: μ-Opioid receptor affinity, Ki

T1 sequence (Q63380 1-617): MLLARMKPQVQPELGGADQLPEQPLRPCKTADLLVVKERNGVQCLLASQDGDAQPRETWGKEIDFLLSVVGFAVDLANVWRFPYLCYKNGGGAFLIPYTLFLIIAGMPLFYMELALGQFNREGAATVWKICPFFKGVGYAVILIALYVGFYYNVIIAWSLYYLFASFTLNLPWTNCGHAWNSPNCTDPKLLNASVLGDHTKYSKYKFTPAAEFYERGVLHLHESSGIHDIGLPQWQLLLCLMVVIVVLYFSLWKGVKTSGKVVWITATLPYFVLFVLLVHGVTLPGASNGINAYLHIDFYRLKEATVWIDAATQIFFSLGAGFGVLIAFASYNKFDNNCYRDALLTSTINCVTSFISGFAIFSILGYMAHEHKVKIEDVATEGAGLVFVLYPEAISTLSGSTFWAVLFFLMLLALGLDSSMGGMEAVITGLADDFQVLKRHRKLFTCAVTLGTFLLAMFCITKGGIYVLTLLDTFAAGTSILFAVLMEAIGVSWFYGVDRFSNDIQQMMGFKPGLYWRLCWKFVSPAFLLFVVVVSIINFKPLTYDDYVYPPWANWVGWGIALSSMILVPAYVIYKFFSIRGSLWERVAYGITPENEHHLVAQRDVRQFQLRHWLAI
5-HT reuptake, sequence (P31652 whole entry): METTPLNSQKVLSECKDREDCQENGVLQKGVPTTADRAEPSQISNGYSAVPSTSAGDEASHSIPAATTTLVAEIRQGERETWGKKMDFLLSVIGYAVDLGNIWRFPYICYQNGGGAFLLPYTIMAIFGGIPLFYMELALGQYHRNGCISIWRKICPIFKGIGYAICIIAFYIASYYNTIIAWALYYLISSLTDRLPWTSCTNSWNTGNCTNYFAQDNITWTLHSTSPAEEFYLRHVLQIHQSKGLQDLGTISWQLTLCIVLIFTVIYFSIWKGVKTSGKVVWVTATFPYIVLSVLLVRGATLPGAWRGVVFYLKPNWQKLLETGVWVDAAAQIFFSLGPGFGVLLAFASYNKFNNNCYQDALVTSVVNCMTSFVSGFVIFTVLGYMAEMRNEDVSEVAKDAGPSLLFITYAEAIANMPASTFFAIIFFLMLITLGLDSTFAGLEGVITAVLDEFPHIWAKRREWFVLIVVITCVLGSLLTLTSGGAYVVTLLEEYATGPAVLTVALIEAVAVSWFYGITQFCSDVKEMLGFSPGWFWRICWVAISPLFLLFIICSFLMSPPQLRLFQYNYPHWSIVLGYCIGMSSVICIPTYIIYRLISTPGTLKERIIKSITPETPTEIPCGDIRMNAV
T2 sequence (P35372 whole entry): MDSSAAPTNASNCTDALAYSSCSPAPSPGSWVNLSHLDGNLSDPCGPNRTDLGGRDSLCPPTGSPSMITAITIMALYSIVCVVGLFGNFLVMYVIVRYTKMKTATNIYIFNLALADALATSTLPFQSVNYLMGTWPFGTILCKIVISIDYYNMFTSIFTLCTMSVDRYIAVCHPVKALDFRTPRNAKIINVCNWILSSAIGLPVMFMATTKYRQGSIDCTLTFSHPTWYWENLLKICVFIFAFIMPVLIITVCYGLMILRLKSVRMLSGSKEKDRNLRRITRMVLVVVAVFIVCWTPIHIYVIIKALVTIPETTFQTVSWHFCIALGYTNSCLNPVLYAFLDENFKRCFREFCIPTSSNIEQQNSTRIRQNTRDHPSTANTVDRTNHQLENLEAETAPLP

SMILES: CN(C)CC1Cc2ccccc2C1(O)c1cccnc1 (single isomer, unassigned) [Example 1, 2-dimethylaminomethyl-1-pyridin-3-yl-indan-1-ol]
- inhibition at 10 µM (NA reuptake): 33%
- Inhibition of 5-HT reuptake (% inhibition at 10 μmol./l) (5-HT reuptake; rat synaptosomes): 63%
- μ-Opioid receptor affinity (% inhibition at 1 μmol./l) (human μ-opiate receptor): 1%

SMILES: CN(C)CC1Cc2ccccc2C1(O)c1cccnc1 (single isomer, unassigned) [Example 2, 2-dimethylaminomethyl-1-pyridin-3-yl-indan-1-ol]
- Inhibition of NA reuptake (% inhibition at 10 μmol./l) (NA reuptake): 43%
- Inhibition of 5-HT reuptake (% inhibition at 10 μmol./l) (5-HT reuptake; rat synaptosomes): 89%
- Inhibition of the nociceptive behaviour versus control (% inhibition) (rat; 46.4 mg/kg i.v.): −80.6%
- μ-Opioid receptor affinity (% inhibition at 1 μmol./l) (human μ-opiate receptor): 60%

SMILES: CNCC[C@H](Oc1cccc2ccccc12)c1cccs1 [Duloxetin, duloxetin, reference compound]
- Inhibition of the nociceptive behaviour versus control, ED50 value (rat; i.v., phase 2, regression analysis): 1.43 mg/kg
- μ-Opioid receptor affinity (% inhibition at 1 μmol./l) (human μ-opiate receptor): −10%

SMILES: CN(C)CC1Cc2ccccc2C1c1cccnc1 (stereo not drawn) [Example 4, dimethyl-(1-pyridin-3-yl-indan-2-ylmethyl)-amine]
- inhibition at 10 µM (NA reuptake): 46%
- inhibition at 10 µM (5-HT reuptake; rat synaptosomes): 86%
- Inhibition of the nociceptive behaviour versus control (% inhibition) (rat; 4.64 mg/kg i.v.): −61.60%
- inhibition at 1 µM (human μ-opiate receptor): 31%

SMILES: COc1ccc2c(c1)CC(CN(C)C)C2(O)c1cccnc1 (stereo not drawn) [Example 5, 2-dimethylaminomethyl-5-methoxy-1-pyridin-3-yl-indan-1-ol]
- inhibition at 10 µM (NA reuptake): 29%
- Ki (5-HT reuptake; [1]): 0.17 µM
- Inhibition of the nociceptive behaviour versus control (% inhibition) (rat; 21.5 mg/kg i.v.): −43.0%
- inhibition at 1 µM (human μ-opiate receptor): 49%

SMILES: CN(C)CC1=C(c2cccnc2)c2ccc(O)cc2C1 [Example 7, 2-dimethylaminomethyl-1-pyridin-3-yl-3H-inden-5-ol]
- inhibition at 10 µM (NA reuptake): 59%
- Ki (5-HT reuptake): 0.025 µM
- ED50 (rat; iv, phase 2, regression analysis, read-out: Inhibition of the nociceptive behaviour versus control, ED50 value): 2.93 mg/kg
- Ki (human μ-opiate receptor; [2]): 0.38 µM

SMILES: CN(C)CC1CCc2ccccc2C1(O)c1cccnc1 (stereo not drawn) [Example 8, 2-dimethylaminomethyl-1-pyridin-3-yl-1,2,3,4-tetrahydro-naphthalen-1-ol]
- Inhibition of the nociceptive behaviour versus control (% inhibition) (rat; 46.4 mg/kg i.v.): −65.8%

SMILES: CN(C)CC1CCCc2ccccc2C1(O)c1cccnc1 (stereo not drawn) [Example 11, 6-dimethylaminomethyl-5-pyridin-3-yl-6,7,8,9-tetrahydro-5H-benzocyclohepten-5-ol]
- inhibition at 10 µM (NA reuptake): 39%
- Ki (5-HT reuptake): 0.028 µM
- inhibition at 1 µM (human μ-opiate receptor): 20%

SMILES: CN(C)CC1=C(c2cccnc2)c2ccccc2[S+]([O-])CC1 (stereo not drawn) [Example 16, dimethyl-(1-oxo-5-pyridin-3-yl-2,3-dihydro-1H-1λ4-benzo[b]thiepin-4-ylmethyl)-amine]
- inhibition at 10 µM (NA reuptake): -2%
- inhibition at 10 µM (5-HT reuptake; rat synaptosomes): 35%
- Ki (human μ-opiate receptor; [2]): 0.21 µM

SMILES: CN(C)CC1CCS(=O)(=O)c2ccccc2C1(O)c1cccnc1 (stereo not drawn) [Example 17, 4-dimethylaminomethyl-1,1-dioxo-5-pyridin-3-yl-2,3,4,5-tetrahydro-1H-1λ6-benzo[b]thiepin-5-ol]
- inhibition at 10 µM (NA reuptake): 19%
- inhibition at 10 µM (5-HT reuptake; rat synaptosomes): 57%
- inhibition at 1 µM (human μ-opiate receptor): -13%

SMILES: CN(C)CC1Cc2cc(F)ccc2C1(O)c1cccnc1 (stereo not drawn) [Example 18, 2-dimethylaminomethyl-5-fluoro-1-pyridin-3-yl-indan-1-ol]
- inhibition at 10 µM (NA reuptake): 29%
- inhibition at 10 µM (5-HT reuptake; rat synaptosomes): 56%
- inhibition at 1 µM (human μ-opiate receptor): -6%

SMILES: CN(C)CC1=C(c2cccnc2)c2ccc(F)cc2C1 [Example 19, (6-fluoro-3-pyridin-3-yl-1H-inden-2-ylmethyl)-dimethyl-amine]
- inhibition at 10 µM (NA reuptake): 31%
- Ki (5-HT reuptake; [1]): 0.043 µM
- Ki (human μ-opiate receptor): 0.29 µM

SMILES: CN(C)CC1Cc2cc(OC(F)(F)F)ccc2C1(O)c1cccnc1 (stereo not drawn) [Example 20, 2-dimethylaminomethyl-1-pyridin-3-yl-5-trifluoromethoxy-indan-1-ol]
- inhibition at 10 µM (NA reuptake): 38%
- inhibition at 10 µM (5-HT reuptake; rat synaptosomes): 71%
- inhibition at 1 µM (human μ-opiate receptor): -19%

SMILES: CN(C)CC1=C(c2cccnc2)c2ccc(OC(F)(F)F)cc2C1 [Example 21, dimethyl-(3-pyridin-3-yl-6-trifluoromethoxy-1H-inden-2-ylmethyl)-amine]
- inhibition at 10 µM (NA reuptake): 14%
- Ki (5-HT reuptake; [1]): 0.43 µM
- inhibition at 1 µM (human μ-opiate receptor): 5%

SMILES: CN(C)CC1Cc2cc(C(F)(F)F)ccc2C1(O)c1cccnc1 (stereo not drawn) [Example 22, 2-dimethylaminomethyl-1-pyridin-3-yl-5-trifluoromethyl-indan-1-ol]
- inhibition at 10 µM (NA reuptake): 17%
- inhibition at 10 µM (5-HT reuptake; rat synaptosomes): 61%
- inhibition at 1 µM (human μ-opiate receptor): 2%

SMILES: CN(C)CC1=C(c2cccnc2)c2ccc(C(F)(F)F)cc2C1 [Example 23, dimethyl-(3-pyridin-3-yl-6-trifluoromethyl-1H-inden-2-ylmethyl)-amine]
- inhibition at 10 µM (NA reuptake): 6%
- inhibition at 10 µM (5-HT reuptake; rat synaptosomes): 47%
- inhibition at 1 µM (human μ-opiate receptor): -8%

SMILES: CN(C)CC1CCOc2ccccc2C1(O)c1cccnc1 (stereo not drawn) [Example 24, 4-dimethylaminomethyl-5-pyridin-3-yl-2,3,4,5-tetrahydro-benzo[b]oxepin-5-ol]
- inhibition at 10 µM (NA reuptake): 9%
- inhibition at 10 µM (5-HT reuptake; rat synaptosomes): 12%
- inhibition at 1 µM (human μ-opiate receptor): 45%

SMILES: CN(C)CC1=C(c2cccnc2)c2ccccc2OCC1 [Example 26, dimethyl-(5-pyridin-3-yl-2,3-dihydro-benzo[b]oxepin-4-ylmethyl)-amine]
- inhibition at 10 µM (NA reuptake): 9%
- inhibition at 10 µM (5-HT reuptake; rat synaptosomes): 50%
- inhibition at 1 µM (human μ-opiate receptor): 37%

SMILES: CN(C)CC1CSc2ccccc2C1(O)c1cccnc1 (stereo not drawn) [Example 31, 3-dimethylaminomethyl-4-pyridin-3-yl-thiochroman-4-ol]
- inhibition at 10 µM (NA reuptake): 48%
- inhibition at 10 µM (5-HT reuptake; rat synaptosomes): -4%

SMILES: COc1cccc2c1CCC(CN(C)C)C2(O)c1cccnc1 (stereo not drawn) [Example 36, 2-dimethylaminomethyl-5-methoxy-1-pyridin-3-yl-1,2,3,4-tetrahydro-naphthalen-1-ol]
- inhibition at 10 µM (NA reuptake): 49%
- inhibition at 10 µM (5-HT reuptake; rat synaptosomes): 33%
- μ-Opioid receptor affinity (% inhibition at 1 μmol./l) (human μ-opiate receptor): −14%

SMILES: COc1cccc2c1CCC(CN(C)C)C2(O)c1cccnc1 (stereo not drawn) [Example 37, 2-dimethylaminomethyl-5-methoxy-1-pyridin-3-yl-1,2,3,4-tetrahydro-naphthalen-1-ol]
- Inhibition of NA reuptake (% inhibition at 10 μmol./l) (NA reuptake): 57%
- Inhibition of 5-HT reuptake (% inhibition at 10 μmol./l) (5-HT reuptake; rat synaptosomes): 19%
- μ-Opioid receptor affinity (% inhibition at 1 μmol./l) (human μ-opiate receptor): 8%

SMILES: COc1cccc2c1CCC(CN(C)C)=C2c1cccnc1 [Example 38, (5-methoxy-1-pyridin-3-yl-3,4-dihydro-naphthalen-2-ylmethyl)-dimethyl-amine]
- inhibition at 10 µM (NA reuptake): 34%
- Ki (5-HT reuptake; [1]): 0.37 µM
- Ki (human μ-opiate receptor; [2]): 0.46 µM

SMILES: CN(C)CC1=C(c2cccnc2)c2cccc(O)c2CC1 [Example 39, 6-dimethylaminomethyl-5-pyridin-3-yl-7,8-dihydro-naphthalen-1-ol]
- inhibition at 10 µM (NA reuptake): 50%
- Ki (5-HT reuptake): 0.25 µM
- Ki (human μ-opiate receptor): 0.02 µM
